Source: PMC12090182, “Repurposing of the RIPK1-Selective Benzo[1,4]oxazepin-4-one Scaffold for the Development of a Type III LIMK1/2 Inhibitor” (ACS Chemical Biology, 2025)
Read-outs that look alike come from different tables or passages of the source.

Test system: HEK293T cells
Format: cell-based
Settings: HEK293T
Method in brief: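 HEK293T and U2OS cells (DMEM) and MRC-9 fibroblasts (EMEM) exposed to compounds at 1 and 10 μM. Live-cell confocal imaging of cell shape and fluorescence before and at 12, 24 and 48 h. Normalized to 0.1% DMSO; biological duplicates with SEM.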

[1] = 1 µM, 0 h, biological replicate 1
[2] = 1 µM, 0 h, biological replicate 2
[3] = 1 µM, 12 h, biological replicate 1
[4] = 1 µM, 12 h, biological replicate 2
[5] = 1 µM, 24 h, biological replicate 1
[6] = 1 µM, 24 h, biological replicate 2
[7] = 1 µM, 48 h, biological replicate 1
[8] = 1 µM, 48 h, biological replicate 2
[9] = 10 µM, 0 h, biological replicate 1
[10] = 10 µM, 0 h, biological replicate 2
[11] = 10 µM, 12 h, biological replicate 1
[12] = 10 µM, 12 h, biological replicate 2
[13] = 10 µM, 24 h, biological replicate 1
[14] = 10 µM, 24 h, biological replicate 2
[15] = 10 µM, 48 h, biological replicate 1
[16] = 10 µM, 48 h, biological replicate 2

Structure (SMILES): CC(C)C(=O)Nc1ncc(-c2cc(C(F)F)nn2-c2c(Cl)cccc2Cl)s1 [LIMKi3]
- Cell count normalized to cells treated with DMSO control [1]: 1.015
- Cell count per well [1]: 303
- Population Fragmented Nuclei (%) [1]: 7.35%
- Population Healthy Nuclei (%) [1]: 47.06%
- Population Pyknosed Nuclei (%) [1]: 45.59%
- Population apoptotic cell (%) [1]: 38.71%
- Population cell that influence microtubule strucutre (%) [1]: 19.53%
- Population with increased mitochondrial mass (%) [1]: 60.16%
- Population with membrane disruption (%) [1]: 0.00%
- Cell count normalized to cells treated with DMSO control [2]: 1.15
- Cell count per well [2]: 263
- Population Fragmented Nuclei (%) [2]: 1.64%
- Population Healthy Nuclei (%) [2]: 65.98%
- Population Pyknosed Nuclei (%) [2]: 32.38%
- Population apoptotic cell (%) [2]: 63.29%
- Population cell that influence microtubule strucutre (%) [2]: 26.71%
- Population with increased mitochondrial mass (%) [2]: 85.09%
- Population with membrane disruption (%) [2]: 0.00%
- Cell count normalized to cells treated with DMSO control [3]: 0.9245
- Cell count per well [3]: 421
- Population Fragmented Nuclei (%) [3]: 4.05%
- Population Healthy Nuclei (%) [3]: 82.03%
- Population Pyknosed Nuclei (%) [3]: 13.92%
- Population apoptotic cell (%) [3]: 40.00%
- Population cell that influence microtubule strucutre (%) [3]: 44.44%
- Population with increased mitochondrial mass (%) [3]: 48.77%
- Population with membrane disruption (%) [3]: 0.62%
- Cell count normalized to cells treated with DMSO control [4]: 1.019
- Cell count per well [4]: 357
- Population Fragmented Nuclei (%) [4]: 6.58%
- Population Healthy Nuclei (%) [4]: 83.39%
- Population Pyknosed Nuclei (%) [4]: 10.03%
- Population apoptotic cell (%) [4]: 53.13%
- Population cell that influence microtubule strucutre (%) [4]: 34.59%
- Population with increased mitochondrial mass (%) [4]: 63.16%
- Population with membrane disruption (%) [4]: 0.38%
- Cell count normalized to cells treated with DMSO control [5]: 0.9573
- Cell count per well [5]: 581
- Population Fragmented Nuclei (%) [5]: 6.08%
- Population Healthy Nuclei (%) [5]: 81.40%
- Population Pyknosed Nuclei (%) [5]: 12.52%
- Population apoptotic cell (%) [5]: 38.57%
- Population cell that influence microtubule strucutre (%) [5]: 25.27%
- Population with increased mitochondrial mass (%) [5]: 30.55%
- Population with membrane disruption (%) [5]: 1.32%
- Cell count normalized to cells treated with DMSO control [6]: 1.028
- Cell count per well [6]: 464
- Population Fragmented Nuclei (%) [6]: 11.83%
- Population Healthy Nuclei (%) [6]: 78.42%
- Population Pyknosed Nuclei (%) [6]: 9.74%
- Population apoptotic cell (%) [6]: 30.95%
- Population cell that influence microtubule strucutre (%) [6]: 20.41%
- Population with increased mitochondrial mass (%) [6]: 38.46%
- Population with membrane disruption (%) [6]: 0.30%
- Cell count normalized to cells treated with DMSO control [7]: 0.8177
- Cell count per well [7]: 827
- Population Fragmented Nuclei (%) [7]: 14.02%
- Population Healthy Nuclei (%) [7]: 79.47%
- Population Pyknosed Nuclei (%) [7]: 6.51%
- Population apoptotic cell (%) [7]: 28.85%
- Population cell that influence microtubule strucutre (%) [7]: 17.17%
- Population with increased mitochondrial mass (%) [7]: 22.36%
- Population with membrane disruption (%) [7]: 1.10%
- Cell count normalized to cells treated with DMSO control [8]: 1.021
- Cell count per well [8]: 697
- Population Fragmented Nuclei (%) [8]: 11.19%
- Population Healthy Nuclei (%) [8]: 83.72%
- Population Pyknosed Nuclei (%) [8]: 5.09%
- Population apoptotic cell (%) [8]: 14.29%
- Population cell that influence microtubule strucutre (%) [8]: 14.58%
- Population with increased mitochondrial mass (%) [8]: 22.05%
- Population with membrane disruption (%) [8]: 0.69%
- Cell count normalized to cells treated with DMSO control [9]: 1.049
- Cell count per well [9]: 313
- Population Fragmented Nuclei (%) [9]: 6.13%
- Population Healthy Nuclei (%) [9]: 53.26%
- Population Pyknosed Nuclei (%) [9]: 40.61%
- Population apoptotic cell (%) [9]: 42.45%
- Population cell that influence microtubule strucutre (%) [9]: 17.27%
- Population with increased mitochondrial mass (%) [9]: 58.99%
- Population with membrane disruption (%) [9]: 0.00%
- Cell count normalized to cells treated with DMSO control [10]: 1.189
- Cell count per well [10]: 272
- Population Fragmented Nuclei (%) [10]: 5.14%
- Population Healthy Nuclei (%) [10]: 69.17%
- Population Pyknosed Nuclei (%) [10]: 25.69%
- Population apoptotic cell (%) [10]: 58.46%
- Population cell that influence microtubule strucutre (%) [10]: 23.43%
- Population with increased mitochondrial mass (%) [10]: 84.57%
- Population with membrane disruption (%) [10]: 0.00%
- Cell count normalized to cells treated with DMSO control [11]: 0.8125
- Cell count per well [11]: 370
- Population Fragmented Nuclei (%) [11]: 7.52%
- Population Healthy Nuclei (%) [11]: 78.06%
- Population Pyknosed Nuclei (%) [11]: 14.42%
- Population apoptotic cell (%) [11]: 54.35%
- Population cell that influence microtubule strucutre (%) [11]: 58.63%
- Population with increased mitochondrial mass (%) [11]: 84.34%
- Population with membrane disruption (%) [11]: 0.80%
- Cell count normalized to cells treated with DMSO control [12]: 1.053
- Cell count per well [12]: 369
- Population Fragmented Nuclei (%) [12]: 5.29%
- Population Healthy Nuclei (%) [12]: 71.47%
- Population Pyknosed Nuclei (%) [12]: 23.24%
- Population apoptotic cell (%) [12]: 41.77%
- Population cell that influence microtubule strucutre (%) [12]: 57.61%
- Population with increased mitochondrial mass (%) [12]: 88.89%
- Population with membrane disruption (%) [12]: 1.23%
- Cell count normalized to cells treated with DMSO control [13]: 0.6376
- Cell count per well [13]: 387
- Population Fragmented Nuclei (%) [13]: 7.23%
- Population Healthy Nuclei (%) [13]: 75.14%
- Population Pyknosed Nuclei (%) [13]: 17.63%
- Population apoptotic cell (%) [13]: 40.98%
- Population cell that influence microtubule strucutre (%) [13]: 62.69%
- Population with increased mitochondrial mass (%) [13]: 85.38%
- Population with membrane disruption (%) [13]: 0.38%
- Cell count normalized to cells treated with DMSO control [14]: 0.8682
- Cell count per well [14]: 392
- Population Fragmented Nuclei (%) [14]: 3.68%
- Population Healthy Nuclei (%) [14]: 77.34%
- Population Pyknosed Nuclei (%) [14]: 18.98%
- Population apoptotic cell (%) [14]: 47.76%
- Population cell that influence microtubule strucutre (%) [14]: 63.74%
- Population with increased mitochondrial mass (%) [14]: 83.88%
- Population with membrane disruption (%) [14]: 0.73%
- Cell count normalized to cells treated with DMSO control [15]: 0.5082
- Cell count per well [15]: 514
- Population Fragmented Nuclei (%) [15]: 8.84%
- Population Healthy Nuclei (%) [15]: 75.22%
- Population Pyknosed Nuclei (%) [15]: 15.95%
- Population apoptotic cell (%) [15]: 52.70%
- Population cell that influence microtubule strucutre (%) [15]: 69.63%
- Population with increased mitochondrial mass (%) [15]: 76.50%
- Population with membrane disruption (%) [15]: 0.29%
- Cell count normalized to cells treated with DMSO control [16]: 0.7148
- Cell count per well [16]: 488
- Population Fragmented Nuclei (%) [16]: 9.82%
- Population Healthy Nuclei (%) [16]: 75.45%
- Population Pyknosed Nuclei (%) [16]: 14.73%
- Population apoptotic cell (%) [16]: 34.85%
- Population cell that influence microtubule strucutre (%) [16]: 65.68%
- Population with increased mitochondrial mass (%) [16]: 74.26%
- Population with membrane disruption (%) [16]: 1.78%
